# Data from patent US6919306B2, “Method of skin care” (Yaizu Suisankagaku Industry Co. Ltd., priority 1999, dated 2005).
# Tests used:
# [1] = Heat treatment stability (coloration or decomposition); type: physicochemical; conditions: pH of 2 to 8 at 100° C. for 1 hour
# Text: In the present invention, as a carrier for the skin care agent, foods such as confectioneries, powdered soups, dairy products and beverages, may, for example, be mentioned. As such foods, specifically, gum, candies, tabletted confectioneries, chocolate, jelly, cookies, snacks, corn potage soup, consomme soup, milk, pudding, yogurt, ice cream, lactic acid beverages, alcohol beverages, vitamin beverages, mineral beverages, coffee beverages, near water, nutrition drinks, and the like, may be mentioned.
# [2] = test system: hyaluronic acid in skin; experiment: Influence of orally administered NAG on hyaluronic acid content in skin; type: in vivo, hairless rats; conditions: for Hyaluronic acid content, Epidermis / Hyaluronic acid content, Corium: hairless rats; for Hyaluronic acid content, Epidermis: 4 weeks (0 mg/kg/day: 31.25); for Hyaluronic acid content, Corium: 4 weeks (0 mg/kg/day: 462.7)
# Description: Using hairless rats, influence of orally administered NAG on the content of hyaluronic acid in skin was tested. The NAG prepared in PREPARATION EXAMPLE 1 was mixed to a basic feed (Solid feed MF, manufactured by Oriental Kobo Kogyo Kabushiki Kaisha), and rats were permitted to freely ingest the mixture so that the substantial administered amount of NAG would be 0, 20 or 200 mg/kg of body weight/day. Administration was continued for 4 weeks from 9 week instar to 13 week instar, and the hyaluronic acid amounts in skin layer were measured separately for epidermis and corium. In this connection, the measurement of the hyaluronic acid was carried out in accordance with a hyaluronic acid measurement kit (manufactured by Chugai Shindanyaku Co.).
# [3] = test system: moisture content of epidermis; experiment: Skin moisture content by Corneometer CM825; type: in vivo, human; conditions: for Moisture content, Left upper arm / Moisture content, Poll / Moisture content, Below left eye: NAG 1,000 mg/day oral
# Description: (§1) To 22 females usually having a tendency of xeroderma and rough skin (average age: 25.5±10.7), a double blind long-term ingestion study was carried out in the following manners provided that a […] were given to a control group.
# (§2) NAG-containing tablets-administered group (NAG group, n=11): Tablets prepared similarly as in Example 1 as described below (NAG amount: 200 mg/tablet), were ingested at a rate of 5 tablets/day (NAG 1,000 mg/day, as a daily dose).
# (§3) The ingestion period was 8 weeks in each group. The inspection was in principle carried out just before the start of ingestion, 4 weeks after the start of ingestion, and just before the completion of ingestion (8 weeks after the start of ingestion).
# The moisture content was measured by using Corneometer CM825 (manufactured by Courage+Khazaka Electronic Gmbh). This apparatus measures the moisture content of epidermis by measuring the electrostatic capacity via corneal layer, and is known to be less in error as compared with a conventional impedance method or infrared spectrophotometric method.
# (§4) Measurement sites were 1 cm below the left eye, medial part of left upper arm (3 cm above the elbow), and poll (3 cm below spinous process of neck). With respect to the oil and fat content, since most subjects were scored at 0 at the left upper arm and the poll, only the site below the left eye was measured from the 2nd inspection.
# (§5) In order to keep the environments for the measurements as equal as possible, a room having its internal conditions adjusted to be constant was prepared before the measurements (room temperature: 18 to 20° C., humidity: 45 to 60%), and the subjects were asked to keep in rest in this room for at least 30 minutes. Further, with respect to the makeup at the measurement site, it was in principle prohibited to put on makeup from 60 minutes before the inspection.
# [4] = test system: oil and fat content of skin; experiment: Skin oil and fat content by Sebumeter SM810; type: in vivo, human; conditions: for Oil and fat content, Below left eye: NAG 1,000 mg/day oral
# Description: as §1, §2, §3
# The oil and fat content was measured by using Sebumeter SM810 (manufactured by Courage+Khazaka Electronic Gmbh). In use of this apparatus, a special tape which absorbs only the oil and fat content is attached to the measurement site for 30 seconds and the oil and fat content is measured by the change of light transmittance of the tape. This apparatus is known not to be affected by humidity, etc.
# as §4, §5
# [5] = test system: skin surface acidity; experiment: Skin acidity (pH) by PH 900; type: in vivo, human; conditions: NAG 1,000 mg/day oral
# Description: as §1, §2, §3
# The acidity was measured by using PH 900 (manufactured by Courage+Khazaka Electronic Gmbh). In use of this apparatus, an electrode is contacted to a skin surface through an ion-permeable membrane neighboring to a glass membrane and the acidity can be measured without electrochemical invasion. In this connection, the optimum pH of female's skin is about 5.5.
# as §4, §5
# [6] = NAG group, 1,000 mg/day oral, 8 weeks
smiles,measurement,setting,value
"CC(=O)N[C@H]1C(O)O[C@H](CO)[C@@H](O)[C@@H]1O (some centres unmarked) [NAG, N-acetylglucosamine]",coloration or decomposition on heat treatment,[1],not to show coloration or decomposition
same,hyaluronic acid contents in epidermis and corium versus administered amount,"[2]; hairless rats, 0, 20 or 200 mg/kg/day, 4 weeks",tend to increase together in proportion to the administered amounts
same,"Hyaluronic acid content, Epidermis",[2]; NAG 20 mg/kg/day in feed,33.77 μg/g dried tissue
same,"Hyaluronic acid content, Corium",[2]; NAG 20 mg/kg/day in feed,506.6 μg/g dried tissue
same,"Hyaluronic acid content, Epidermis",[2]; NAG 200 mg/kg/day in feed,35.09 μg/g dried tissue
same,"Hyaluronic acid content, Corium",[2]; NAG 200 mg/kg/day in feed,549.8 μg/g dried tissue
same,"Moisture content, Left upper arm",[3]; after 4 weeks,38.7 ± 5.8
same,"Moisture content, Poll",[3]; after 4 weeks,51.9 ± 5.4
same,"Moisture content, Below left eye","[3]; after 4 weeks, p < 0.05",58.8 ± 14.2
same,"Moisture content, Left upper arm",[3]; after 8 weeks,36.2 ± 6.8
same,"Moisture content, Poll",[3]; after 8 weeks,52.1 ± 10.9
same,"Moisture content, Below left eye","[3]; after 8 weeks, p < 0.01",56.2 ± 8.4
same,"Moisture content, Below left eye",[3]; before ingestion,48.0 ± 8.8
same,"Moisture content, Left upper arm",[3]; before ingestion,37.8 ± 7.8
same,"Moisture content, Poll",[3]; before ingestion,51.3 ± 5.6
same,"moisture content at the site below the left eye, change",[3]; [6],significant increase
same,"Oil and fat content, Below left eye",[4]; after 4 weeks,53.0 ± 29.2
same,"Oil and fat content, Below left eye","[4]; after 8 weeks, p < 0.05",40.8 ± 18.7
same,"Oil and fat content, Below left eye",[4]; before ingestion,63.8 ± 42.3
same,"oil and fat content, change",[4]; [6],significant decrease
same,"Acidity (pH), Below left eye",[5]; after 4 weeks,5.7 ± 0.5 pH
same,"Acidity (pH), Left upper arm",[5]; after 4 weeks,5.6 ± 0.3 pH
same,"Acidity (pH), Poll",[5]; after 4 weeks,5.4 ± 0.3 pH
same,"Acidity (pH), Below left eye",[5]; after 8 weeks,5.8 ± 0.4 pH
same,"Acidity (pH), Left upper arm",[5]; after 8 weeks,5.7 ± 0.4 pH
same,"Acidity (pH), Poll",[5]; after 8 weeks,5.3 ± 0.4 pH
same,"Acidity (pH), Left upper arm",[5]; before ingestion,5.5 ± 0.3 pH
same,"Acidity (pH), Poll",[5]; before ingestion,5.7 ± 1.1 pH
same,"Acidity (pH), Below left eye","[5]; before ingestion, optimum pH about 5.5",6.0 ± 1.0 pH
